# Test system: SARS-CoV-2 Variants Alpha, Beta, Gamma and Delta
# Assay: In vitro activity against SARS-CoV-2 variants (pooled statements)
substance,measurement,setting,value
2-aminoethanethiol [cysteamine],inactivation of the virus in tissue culture,"10 mM solution, contingent on time of exposure and concentration",85-100%
same,inactivation of the variants,"10 mM, 15-90 minutes exposure",near complete inactivation
